{
  "source": "the supplement of paper PMC10307832",
  "test_in_all_cases": "relative viability (nuclei count vs DMSO), 5 days (fraction); higher = more cells survive",
  "key": {"EHT 1864": {"compound": "C1COCCN1CC2=CC(=O)C(=CO2)OCCCCCSC3=C4C=CC(=CC4=NC=C3)C(F)(F)F [EHT 1864]", "outline": "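MetaXpress counted nuclei in 4× images of lung cancer cell lines that had been fixed, permeabilised and Hoechst-stained in one step. Before that, cells in 1536-well plates were kept overnight at 37 °C, pinned with five √10-spaced library-drug doses on vehicle-anchored plates, and cultured 5 days without medium change. Viability takes treated-well nuclei over vehicle-well nuclei and uses the median across plates. Plates were accepted only at control CV below 25% and at least one doubling.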"}, "EHT 1864 + Bortezomib": {"compound": "C1COCCN1CC2=CC(=O)C(=CO2)OCCCCCSC3=C4C=CC(=CC4=NC=C3)C(F)(F)F [EHT 1864] + CC(C)C[C@H](NC(=O)[C@H](Cc1ccccc1)NC(=O)c1cnccn1)B(O)O [Bortezomib] (partner 0.002 µM)", "outline": "(§1)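 Nuclei were stained with Hoechst during a one-step fixation (final 0.05% Triton X-100, 1% formaldehyde, 1 ug/ml Hoechst) carried out 5 days after dosing, then counted on 4× images. The cells, lung cancer lines in 1536-well plates, had been dosed by pin tool the day after seeding with one drug alone or a fixed anchor-drug dose plus five library-drug doses (not always all listed) in √10 steps. Relative viability is the nuclei count in treated wells divided by that in vehicle wells, and each value is the median of duplicate plates.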"}, "EHT 1864 + Navitoclax": {"compound": "C1COCCN1CC2=CC(=O)C(=CO2)OCCCCCSC3=C4C=CC(=CC4=NC=C3)C(F)(F)F [EHT 1864] + CC1(C)CCC(c2ccc(Cl)cc2)=C(CN2CCN(c3ccc(C(=O)NS(=O)(=O)c4ccc(N[C@H](CCN5CCOCC5)CSc5ccccc5)c(S(=O)(=O)C(F)(F)F)c4)cc3)CC2)C1 [Navitoclax] (partner 0.5 µM)", "outline": "as §1"}, "EHT 1864 + Foretinib": {"compound": "C1COCCN1CC2=CC(=O)C(=CO2)OCCCCCSC3=C4C=CC(=CC4=NC=C3)C(F)(F)F [EHT 1864] + COc1cc2c(Oc3ccc(NC(=O)C4(C(=O)Nc5ccc(F)cc5)CC4)cc3F)ccnc2cc1OCCCN1CCOCC1 [Foretinib] (partner 0.25 µM)", "outline": "as §1"}, "EHT 1864 + Lapatinib": {"compound": "C1COCCN1CC2=CC(=O)C(=CO2)OCCCCCSC3=C4C=CC(=CC4=NC=C3)C(F)(F)F [EHT 1864] + CS(=O)(=O)CCNCc1ccc(-c2ccc3ncnc(Nc4ccc(OCc5cccc(F)c5)c(Cl)c4)c3c2)o1 [Lapatinib] (partner 2 µM)", "outline": "as §1"}, "EHT 1864 + Pictilisib": {"compound": "C1COCCN1CC2=CC(=O)C(=CO2)OCCCCCSC3=C4C=CC(=CC4=NC=C3)C(F)(F)F [EHT 1864] + CS(=O)(=O)N1CCN(Cc2cc3nc(-c4cccc5[nH]ncc45)nc(N4CCOCC4)c3s2)CC1 [Pictilisib] (partner 1 µM)", "outline": "as §1"}, "EHT 1864 + Crizotinib": {"compound": "C1COCCN1CC2=CC(=O)C(=CO2)OCCCCCSC3=C4C=CC(=CC4=NC=C3)C(F)(F)F [EHT 1864] + C[C@@H](Oc1cc(-c2cnn(C3CCNCC3)c2)cnc1N)c1c(Cl)ccc(F)c1Cl [Crizotinib] (partner 1 µM)", "outline": "as §1"}, "EHT 1864 + Linsitinib": {"compound": "C1COCCN1CC2=CC(=O)C(=CO2)OCCCCCSC3=C4C=CC(=CC4=NC=C3)C(F)(F)F [EHT 1864] + C[C@]1(O)C[C@@H](c2nc(-c3ccc4ccc(-c5ccccc5)nc4c3)c3c(N)nccn32)C1 [Linsitinib] (partner 1 µM)", "outline": "as §1"}, "EHT 1864 + Alpelisib": {"compound": "C1COCCN1CC2=CC(=O)C(=CO2)OCCCCCSC3=C4C=CC(=CC4=NC=C3)C(F)(F)F [EHT 1864] + Cc1nc(NC(=O)N2CCC[C@H]2C(N)=O)sc1-c1ccnc(C(C)(C)C(F)(F)F)c1 [Alpelisib] (partner 2 µM)", "outline": "as §1"}, "EHT 1864 + Olaparib": {"compound": "C1COCCN1CC2=CC(=O)C(=CO2)OCCCCCSC3=C4C=CC(=CC4=NC=C3)C(F)(F)F [EHT 1864] + O=C(c1cc(Cc2n[nH]c(=O)c3ccccc23)ccc1F)N1CCN(C(=O)C2CC2)CC1 [Olaparib] (partner 8 µM)", "outline": "as §1"}},
  "data": [
    {"cell line": "NCI-H1299", "values": [
      {"measurement": "relative viability", "setting": "EHT 1864; 0.04 µM", "value": 1.01},
      {"measurement": "relative viability", "setting": "EHT 1864; 0.1265 µM", "value": 0.976},
      {"measurement": "relative viability", "setting": "EHT 1864; 0.4 µM", "value": 0.964},
      {"measurement": "relative viability", "setting": "EHT 1864; 1.265 µM", "value": 0.979},
      {"measurement": "relative viability", "setting": "EHT 1864; 4 µM", "value": 0.956},
      {"measurement": "relative viability", "setting": "EHT 1864 + Bortezomib; first compound 0.04 µM", "value": 1.02},
      {"measurement": "relative viability", "setting": "EHT 1864 + Bortezomib; first compound 0.1265 µM", "value": 0.986},
      {"measurement": "relative viability", "setting": "EHT 1864 + Bortezomib; first compound 0.4 µM", "value": 0.993},
      {"measurement": "relative viability", "setting": "EHT 1864 + Bortezomib; first compound 1.265 µM", "value": 0.994},
      {"measurement": "relative viability", "setting": "EHT 1864 + Bortezomib; first compound 4 µM", "value": 0.917},
      {"measurement": "relative viability", "setting": "EHT 1864 + Navitoclax; first compound 0.04 µM", "value": 1.02},
      {"measurement": "relative viability", "setting": "EHT 1864 + Navitoclax; first compound 0.1265 µM", "value": 1.02},
      {"measurement": "relative viability", "setting": "EHT 1864 + Navitoclax; first compound 0.4 µM", "value": 1.05},
      {"measurement": "relative viability", "setting": "EHT 1864 + Navitoclax; first compound 1.265 µM", "value": 0.986},
      {"measurement": "relative viability", "setting": "EHT 1864 + Navitoclax; first compound 4 µM", "value": 0.984},
      {"measurement": "relative viability", "setting": "EHT 1864 + Foretinib; first compound 0.04 µM", "value": 1.05},
      {"measurement": "relative viability", "setting": "EHT 1864 + Foretinib; first compound 0.1265 µM", "value": 1.09},
      {"measurement": "relative viability", "setting": "EHT 1864 + Foretinib; first compound 0.4 µM", "value": 1.06},
      {"measurement": "relative viability", "setting": "EHT 1864 + Foretinib; first compound 1.265 µM", "value": 1.04},
      {"measurement": "relative viability", "setting": "EHT 1864 + Foretinib; first compound 4 µM", "value": 1.07},
      {"measurement": "relative viability", "setting": "EHT 1864 + Lapatinib; first compound 0.04 µM", "value": 0.969},
      {"measurement": "relative viability", "setting": "EHT 1864 + Lapatinib; first compound 0.1265 µM", "value": 0.904},
      {"measurement": "relative viability", "setting": "EHT 1864 + Lapatinib; first compound 0.4 µM", "value": 0.949},
      {"measurement": "relative viability", "setting": "EHT 1864 + Lapatinib; first compound 1.265 µM", "value": 0.931},
      {"measurement": "relative viability", "setting": "EHT 1864 + Lapatinib; first compound 4 µM", "value": 0.909},
      {"measurement": "relative viability", "setting": "EHT 1864 + Pictilisib; first compound 0.04 µM", "value": 0.71},
      {"measurement": "relative viability", "setting": "EHT 1864 + Pictilisib; first compound 0.1265 µM", "value": 0.669},
      {"measurement": "relative viability", "setting": "EHT 1864 + Pictilisib; first compound 0.4 µM", "value": 0.725},
      {"measurement": "relative viability", "setting": "EHT 1864 + Pictilisib; first compound 1.265 µM", "value": 0.729},
      {"measurement": "relative viability", "setting": "EHT 1864 + Pictilisib; first compound 4 µM", "value": 0.684},
      {"measurement": "relative viability", "setting": "EHT 1864 + Crizotinib; first compound 0.04 µM", "value": 0.928},
      {"measurement": "relative viability", "setting": "EHT 1864 + Crizotinib; first compound 0.1265 µM", "value": 0.975},
      {"measurement": "relative viability", "setting": "EHT 1864 + Crizotinib; first compound 0.4 µM", "value": 0.95},
      {"measurement": "relative viability", "setting": "EHT 1864 + Crizotinib; first compound 1.265 µM", "value": 0.925},
      {"measurement": "relative viability", "setting": "EHT 1864 + Crizotinib; first compound 4 µM", "value": 0.901},
      {"measurement": "relative viability", "setting": "EHT 1864 + Linsitinib; first compound 0.04 µM", "value": 0.903},
      {"measurement": "relative viability", "setting": "EHT 1864 + Linsitinib; first compound 0.1265 µM", "value": 0.877},
      {"measurement": "relative viability", "setting": "EHT 1864 + Linsitinib; first compound 0.4 µM", "value": 0.981},
      {"measurement": "relative viability", "setting": "EHT 1864 + Linsitinib; first compound 1.265 µM", "value": 0.969},
      {"measurement": "relative viability", "setting": "EHT 1864 + Linsitinib; first compound 4 µM", "value": 0.936},
      {"measurement": "relative viability", "setting": "EHT 1864 + Alpelisib; first compound 0.04 µM", "value": 0.973},
      {"measurement": "relative viability", "setting": "EHT 1864 + Alpelisib; first compound 0.1265 µM", "value": 0.974},
      {"measurement": "relative viability", "setting": "EHT 1864 + Alpelisib; first compound 0.4 µM", "value": 0.983},
      {"measurement": "relative viability", "setting": "EHT 1864 + Alpelisib; first compound 1.265 µM", "value": 1.05},
      {"measurement": "relative viability", "setting": "EHT 1864 + Alpelisib; first compound 4 µM", "value": 1.08},
      {"measurement": "relative viability", "setting": "EHT 1864 + Olaparib; first compound 0.04 µM", "value": 0.96},
      {"measurement": "relative viability", "setting": "EHT 1864 + Olaparib; first compound 0.1265 µM", "value": 0.939},
      {"measurement": "relative viability", "setting": "EHT 1864 + Olaparib; first compound 0.4 µM", "value": 0.964},
      {"measurement": "relative viability", "setting": "EHT 1864 + Olaparib; first compound 1.265 µM", "value": 0.913},
      {"measurement": "relative viability", "setting": "EHT 1864 + Olaparib; first compound 4 µM", "value": 0.893}
    ]}
  ]
}
